Reference: ChEMBL document CHEMBL4308851, “Alkyl-guanidine Compounds as Potent Broad-Spectrum Antibacterial Agents: Chemical Library Extension and Biological Characterization” (J Med Chem, 2018)
Values after ≈ are worked out from the molar mass of the structure shown. Values belong to the compound of their own block, whether it stands above or below them. Active and inactive are the calls of the source. No cut-off for these calls is given here.

Key:
Acinetobacter baumannii [1] = assay: Antibacterial activity against Acinetobacter baumannii ATCC 17978 after 18 hrs by microdilution broth method; type: functional
Pseudomonas aeruginosa [2] = assay: Antibacterial activity against Pseudomonas aeruginosa ATCC 27853 after 18 hrs by microdilution broth method; type: functional
Escherichia coli [3] = assay: Antibacterial activity against Escherichia coli CCUG after 24 hrs by microdilution broth method; type: functional
Klebsiella pneumoniae = assay: Antibacterial activity against Klebsiella pneumoniae ATCC […] after 18 hrs by microdilution broth method; type: functional
Escherichia coli [4] = assay: Bactericidal activity against Escherichia coli CCUG assessed as log reduction in CFU at 2 times MIC concentration after 1 hr by time kill assay; type: functional
Acinetobacter baumannii [5] = assay: Disruption of inner membrane integrity in Acinetobacter baumannii ATCC 19606 co-expressing pMP2200::PrrnB plasmid assessed as induction of […] conversion at 256 ug/ml measured at 10 mins intervals for 1 hr; type: functional, organism-based; details: ATCC 19606 = CIP 70.34 = JCM 6841
Acinetobacter baumannii [6] = assay: Antibiofilm activity against Acinetobacter baumannii ATCC 19606 at half MIC concentration after 24 hrs by crystal violet-based assay; type: functional, organism-based; details: ATCC 19606 = CIP 70.34 = JCM 6841
Escherichia coli [7] = assay: Antibiofilm activity against Escherichia coli MG1655 ATCC 47076 assessed as effect on biofilm 3D structures at half MIC concentration after 24 hrs by AO-staining based confocal microscopy; type: functional, organism-based; details: K-12 substr. MG1655 ATCC 47076
Staphylococcus aureus = assay: Antibacterial activity against Staphylococcus aureus ATCC 25923 after 18 hrs by microdilution broth method; type: functional; details: ATCC 25923, 18 h
Escherichia coli [8] = assay: Antibacterial activity against Escherichia coli CCUG after 18 hrs by microdilution broth method
[9] = Hemolytic activity against human erythrocytes assessed as induction of hemolysis at 64 ug/ml after 30 mins; type: cell-based, Erythrocyte; details: read-out: Activity
Streptococcus pyogenes = assay: Antibacterial activity against Streptococcus pyogenes ATCC 12344 after 18 hrs by microdilution broth method; type: functional; details: ATCC 12344, 18 h
Enterococcus faecalis = assay: Antibacterial activity against Enterococcus faecalis ATCC 19433 after 18 hrs by microdilution broth method; type: functional; details: ATCC 19433, 18 h
Bacillus spizizenii = assay: Antibacterial activity against Bacillus subtilis ATCC 6633 after 18 hrs by microdilution broth method; type: functional; details: ATCC 6633, 18 h
Acinetobacter baumannii [10] = assay: Antibiofilm activity against Acinetobacter baumannii ATCC 19606 assessed as effect on biofilm 3D structures at half MIC concentration after 24 hrs by AO-staining based confocal microscopy; type: functional, organism-based; details: ATCC 19606 = CIP 70.34 = JCM 6841
Escherichia coli [11] = assay: Disruption of inner membrane integrity in Escherichia coli MG1655 assessed as induction of […] conversion at 256 ug/ml measured at 10 mins intervals for 1 hr; type: functional, organism-based; details: K-12 substr. MG1655
Pseudomonas aeruginosa [12] = assay: Antibiofilm activity against Pseudomonas aeruginosa PAO1 ATCC 15692 at half MIC concentration after 24 hrs by crystal violet-based assay; type: functional, organism-based
Pseudomonas aeruginosa [13] = assay: Antibiofilm activity against Pseudomonas aeruginosa PAO1 ATCC 15692 assessed as effect on biofilm 3D structures at half MIC concentration after 24 hrs by AO-staining based confocal microscopy; type: functional, organism-based
Pseudomonas aeruginosa [14] = assay: Disruption of inner membrane integrity in Pseudomonas aeruginosa PAO1 ATCC 15692 co-expressing pMP2200::PrrnB plasmid assessed as induction of OPNG conversion at 256 ug/ml measured at 10 mins intervals for 1 hr; type: functional, organism-based
Escherichia coli [15] = assay: Disruption of Escherichia coli MG1655 ATCC 47076 outer membrane integrity assessed as induction of NPN uptake after 30 mins by NPN fluorescence-based assay; type: functional, organism-based; details: K-12 substr. MG1655 ATCC 47076
Escherichia coli [16] = assay: Antibiofilm activity against Escherichia coli MG1655 ATCC 47076 at half MIC concentration after 24 hrs by crystal violet-based assay; type: functional, organism-based; details: K-12 substr. MG1655 ATCC 47076
Pseudomonas aeruginosa [17] = assay: Disruption of Pseudomonas aeruginosa PAO1 ATCC 15692 outer membrane integrity assessed as induction of NPN uptake after 30 mins by NPN fluorescence-based assay; type: functional, organism-based
Acinetobacter baumannii [18] = assay: Disruption of Acinetobacter baumannii ATCC 19606 outer membrane integrity assessed as induction of NPN uptake after 30 mins by NPN fluorescence-based assay; type: functional, organism-based; details: ATCC 19606 = CIP 70.34 = JCM 6841
in vitro = details: human, Caco-2
Description: Efflux ratio of apparent permeability in human Caco2 cells at 10 uM after 120 mins by LC-MS/MS analysis

Compound: COLISTIN
- MIC (Acinetobacter baumannii [1]): 1 µg/mL
- MIC (Pseudomonas aeruginosa [2]): 0.5 µg/mL
- MIC (Escherichia coli [3]): 0.5 µg/mL
- MIC (Klebsiella pneumoniae): 0.5 µg/mL
- Activity (Escherichia coli [4]): Active

- MIC (Staphylococcus aureus): 2 µg/mL (≈ 2.71 µM)
- MIC (Escherichia coli [8]): 4 µg/mL (≈ 5.43 µM)
- MIC (Streptococcus pyogenes): 1 µg/mL (≈ 1.36 µM)
- MIC (Enterococcus faecalis): 2 µg/mL (≈ 2.71 µM)
- MIC (Acinetobacter baumannii [1]; ATCC 17978, 18 h): 16 µg/mL (≈ 21.7 µM)
- MIC (Bacillus spizizenii): 32 µg/mL (≈ 43.4 µM)
- MIC (Pseudomonas aeruginosa [2]; ATCC 27853, 18 h): 32 µg/mL (≈ 43.4 µM)
- MIC (Klebsiella pneumoniae): 32 µg/mL (≈ 43.4 µM)
Compound: N=C(N)NCCCCCCCCN(CCCCCCCCNC(=N)N)C(=O)N(CCCCCCCCNC(=N)N)CCCCCCCCNC(=N)N
- Activity (Acinetobacter baumannii [5]): inactive
- Activity (Acinetobacter baumannii [6]): inactive
- Activity (Escherichia coli [7]): inactive
- hemolysis at 0.5 h, 64 ug/ml [9]: 0 to 7%
- Activity (Acinetobacter baumannii [10]): inactive
- Activity (Escherichia coli [11]): inactive
- Activity (Pseudomonas aeruginosa [12]): inactive
- Activity (Pseudomonas aeruginosa [13]): inactive
- Activity (Pseudomonas aeruginosa [14]): inactive
- Activity (Escherichia coli [15]): Dose-dependent effect
- Activity (Escherichia coli [16]): inactive
- Activity (Pseudomonas aeruginosa [17]): Dose-dependent effect
- Activity (Acinetobacter baumannii [18]): Dose-dependent effect

- efflux ratio at 2 h, 10 µM (in vitro): 0.4
Compound: CC(C)NCC(O)COc1cccc2ccccc12 (configuration not stated) [PROPRANOLOL]
